Measured values taken from US12714696B2, “Low dose fluralaner compositions for protection against parasitic invertebrate pest” (VIRBAC, priority 2019, dated 2026).
Several values for one entry are separate records, joined by “and”; a condition that tells them apart may be missing. Identical values can stand only once. Like-named read-outs stand apart in the source and are kept apart here.

Assay: Pharmacokinetics after repeated oral administration of 35 μg/kg of fluralaner in dogs after feeding
Type: in vivo, beagle dogs
Details: oral 35 μg/kg Days 0-3, dogs; for concentration at 480 h / concentration at 576 h / concentration at 672 h / AUC(0-inf) / AUC(0-t) / Cmax / half-life: beagle, dog, plasma, po; for concentration at 480 h / concentration at 576 h / concentration at 672 h: 35 μg/kg; for AUC(0-inf) / AUC(0-t) / Cmax / half-life: 35 ug/kg
Procedure: The first objective of the study was to obtain the pharmacokinetic parameters after repeated oral administration of 35 μg/kg of fluralaner in dogs, 30 to 35 minutes after feeding.
The second objective was to investigate the pharmacodynamics between the fluralaner plasmatic dose and the effectiveness against fleas. • IVP: Investigational Veterinary Product, is pure Fluralaner+DMSO (35 μg/kg on Days 0 to 3 (0.35 mL/kg)) • Control product is DMSO (0.35 mL/kg on Days 0 to 3)
On Days 0, 1, 2 and 3, all dogs assigned to group 2 received the Investigational Veterinary Product. On Days 0 to 3 all dogs in group 1 received the control product at a volume equal to the dogs in group 2. Dogs assigned to group 1 received the control product and served as Placebo controls. The quantity of Investigational Veterinary Product and control product administered was calculated according to the dog's individual body weight measured on Day −1.
Blood samples were taken from all dogs prior to Investigational Veterinary Product treatment or control product administration on Day 0 and on Days 1 (+24 hours), 2 (+48 hours), 3 (+72 hours), 4 (+96 hours), 5 (+120 hours), 10 (+240 hours), 15 (+360 hours), 20 (+480 hours), 24 (+576 hours) and Day 28 (+672 hours).
On days of administration of pre-Investigational Veterinary Product or Control Product, dogs were fed (the same dog food) approximately half of their normal daily ration 30 minutes to 35 minutes prior to administration. Food consumed by the time of administration was calculated and recorded. The remainder of their normal daily ration was fed immediately after administration.
The PK parameters of fluralaner were calculated using a non-compartmental approach.
The following rules were applied for the calculation of the PK parameters: • All the plasma concentrations, validated by the bioanalytical laboratory, were used for the PK analysis. • The actual blood sampling times were used throughout. • Concentrations below the Limit of Quantification (LOQ) value were considered as zero from time zero (pre-dose) up to the time at which the first quantifiable concentration above the LOQ value was observed. Concentrations below the LOQ value between two quantifiable concentrations were considered as missing. Trailing concentrations below the LOQ value were not used in calculations.
Cmax the observed maximum concentration in plasma measured after dosing.
tmax the time at which Cmax was apparent.
λz the terminal rate constant (λz) was estimated by log-linear regression analysis on data points visually assessed, to be on the terminal log-linear phase. For the slope of the terminal elimination phase to be accepted as reliable, the following criteria were used: • the terminal data points were apparently randomly distributed about a single straight line (on visual inspection), • a minimum of three data points, including the last measured data point and excluding Cmax, were available for the regression.
t1/2 the terminal plasma half-life (t1/2) was calculated according to the following equation: […]
AUC0-t the area under the concentration-time curve from time zero (pre-dose) to the time of last quantifiable concentration (t) was calculated using a linear trapezoidal method.
[AUC0-∞=AUC0-t+(Ct/λz)], where Ct was the observed concentration of drug for the last sample on the PK profile in which the drug was detected, and λz was as defined above.
The extrapolated area under the curve, expressed as a percentage of the total area, AUCinf, was also calculated as: Area Extra (%)=(AUC0-∞−AUC0-t)/AUC0-∞*100%.

[1] = n=6, read-out: fluralaner concentration levels, Mean
[2] = n=6, read-out: fluralaner concentration levels, Median
[3] = n=6, read-out: fluralaner concentration levels, Minimum
[4] = read-out: fluralaner concentration levels, individual animal
[5] = n=6, read-out: fluralaner concentration levels, GeoMean
[6] = n=6, read-out: fluralaner concentration levels, Maximum

Structure (SMILES): Cc1cc(C2=NOC(c3cc(Cl)cc(Cl)c3)(C(F)(F)F)C2)ccc1C(=O)NCC(=O)NCC(F)(F)F (stereo not drawn) [fluralaner, Fluralaner]
- concentration at 480 h [1]: 22.4 ng/mL
- concentration at 480 h [2]: 23.2 ng/mL
- concentration at 480 h [3]: 17.1 ng/mL
- concentration at 480 h [4]: 25.3 ng/mL
- concentration at 576 h [5]: 17.1 ng/mL
- concentration at 576 h [6]: 22.2 ng/mL
- concentration at 576 h [1]: 17.4 ng/mL
- concentration at 576 h [2]: 16.1 ng/mL
- concentration at 576 h [3]: 13.3 ng/mL
- concentration at 576 h [4]: 17.3 ng/mL
- concentration at 672 h [5]: 12.5 ng/mL
- concentration at 672 h [6]: 16 ng/mL
- concentration at 672 h [1]: 12.8 ng/mL
- concentration at 672 h [2]: 12.8 ng/mL
- concentration at 672 h [3]: 9.1 ng/mL
- concentration at 672 h [4]: 16 ng/mL
- AUC(0-inf) (n=6, read-out: AUC 0-inf, GeoMean): 27900 ng·h/mL
- AUC(0-inf) (n=6, read-out: AUC 0-inf, Mean): 28100 ng·h/mL
- AUC(0-inf) (n=6, read-out: AUC 0-inf, Median): 28300 ng·h/mL
- AUC(0-t) (n=6, read-out: AUC 0-t, GeoMean): 23900 ng·h/mL
- AUC(0-t) (n=6, read-out: AUC 0-t, Mean): 23900 ng·h/mL
- AUC(0-t) (n=6, read-out: AUC 0-t, Median): 24000 ng·h/mL
- Cmax (n=6, read-out: Cmax, GeoMean): 84 ng/mL
- Cmax (n=6, read-out: Cmax, Mean): 84.4 ng/mL
- Cmax (n=6, read-out: Cmax, Median): 87 ng/mL
- half-life (n=6, read-out: t½ (terminal half-life), Mean (converted)): 217 h
- half-life (n=6, read-out: t½, GeoMean (converted)): 214 h
- half-life (n=6, read-out: t½, Median (converted)): 233 h
- AUC(0-inf) (read-out: AUC 0-inf, individual animal): 31000 ng·h/mL
- AUC(0-t) (read-out: AUC 0-t, individual animal): 25000 ng·h/mL
- Cmax (read-out: Cmax, individual animal): 71.8 ng/mL
- Cmax (read-out: maximum concentration (Cmax), range): 71.8 to 92.4 ng/mL
- half-life (read-out: terminal half-life, range): 155 to 261 h
- half-life (read-out: t½, individual animal (converted)): 261 h
- AUC 0-inf, individual animal: 26895 ng·h/mL and 31726 ng·h/mL and 29670 ng·h/mL and 23684 ng·h/mL and 25369 ng·h/mL
- AUC 0-t, individual animal: 23395 ng·h/mL and 26334 ng·h/mL and 24538 ng·h/mL and 21644 ng·h/mL and 22612 ng·h/mL
- AUC extrap, individual animal: 19.5% and 13.0% and 17.0% and 17.3% and 8.6% and 10.9%
- Cmax, individual animal: 92.4 ng/mL and 89.4 ng/mL and 76.6 ng/mL and 91.6 ng/mL and 84.5 ng/mL
- Lambda z, individual animal: 0.0027 and 0.0030 (2×) and 0.0029 and 0.0045 and 0.0037
- t½, individual animal: 233.3 h and 233.6 h and 235.6 h and 155.2 h and 185.6 h
- AUC 0-inf, Maximum (n=6): 31726 ng·h/mL
- AUC 0-inf, Minimum (n=6): 23684 ng·h/mL
- AUC 0-t, Maximum (n=6): 26334 ng·h/mL
- AUC 0-t, Minimum (n=6): 21644 ng·h/mL
- AUC extrap, GeoMean (n=6): 13.82%
- AUC extrap, Maximum (n=6): 19.5%
- AUC extrap, Mean (n=6): 14.38%
- AUC extrap, Median (n=6): 15.00%
- AUC extrap, Minimum (n=6): 8.6%
- Cmax, Maximum (n=6): 92.4 ng/mL
- Lambda z, GeoMean (n=6): 0.00324 h⁻¹
- Lambda z, Maximum (n=6): 0.0045
- Lambda z, Mean (n=6): 0.00329 h⁻¹
- Lambda z, Median (n=6): 0.00297 h⁻¹
- Lambda z, Minimum (n=6): 0.0027 h⁻¹
- t½, Maximum (n=6): 261.4 h
- t½, Minimum (n=6): 155.2 h
